The values below come from patent publication US9751851B2, “Molecules and compositions that inhibit gram negative bacteria and their uses” (THE TRUSTEES OF PRINCETON UNIVERSITY, priority 2013, dated 2017).

In test [1] the target is T1, LasR (Pseudomonas aeruginosa, UniProt P25084).
T1 construct: expressed in transfected cells; host or cells: E. coli BL21-Gold (DE3) carrying pET23b-lasR
In words: LasR-GFP assay (rsaL-gfp reporter in recombinant E. coli). In kind it is cell-based, P. aeruginosa. On the procedure: (§1) Methods. The LasR-GFP assays were performed in E. coli strain BL21 DE3 Gold (Agilent) carrying pET23b (Novagen) containing lasR (maintained with 100 μg/mL ampicillin) and carrying plasmid pEVS141 (31) containing the rsaL promoter driving expression of gfp (maintained with […] of kanamycin.) The RhlR-GFP assays were performed in E. coli strain BL21 DE3 Gold (Agilent) carrying pET23b (Novagen) containing rhlR (maintained with 100 μg/mL ampicillin) and carrying plasmid pEVS141 containing the rhlA promoter driving expression of gfp (maintained with 50 μg/mL of kanamycin.) These E. coli strains were grown overnight and subcultured into fresh medium with appropriate antibiotics at a 1:100 dilution and grown shaking for 8 hr at 37° C. for the LasR-GFP strain and 12 hr for the RhlR-GFP construct. 50 nM 3OC12-HSL or 20 μM C4-HSL was added to the LasR-GFP and RhlR-GFP preparations, respectively. Compounds were tested at 1 mM for antagonism and at 100 nM or 20 μM for agonism. These concentrations were chosen for agonism studies to match the concentrations of autoinducers used in the experiments. For antagonism studies, the EC95 concentration was used for each receptor. GFP was measured on an Envision plate reader.
(§2) The LasR-GFP assays were performed in E. coli strain BL21 DE3 Gold (Agilent) carrying pET23b (Novagen) containing lasR (maintained with 100 μg/mL ampicillin) and carrying plasmid pEVS141 (31) containing the rsaL promoter driving expression of gfp (maintained with 50 μg/mL of kanamycin.) The RhlR-GFP assays were performed in E. coli strain BL21 DE3 Gold (Agilent) carrying pET23b (Novagen) containing rhlR (maintained with 100 μg/mL ampicillin) and carrying plasmid pEVS141 (31) containing the rhlA promoter driving expression of gfp (maintained with 50 μg/mL of kanamycin.) These E. coli strains were grown overnight and subcultured into fresh medium with appropriate antibiotics at a 1:100 dilution and grown shaking for 8 hr at 37° C. for the LasR-GFP strain and 12 hr for the RhlR-GFP construct. 50 nM 3OC12-HSL or 20 μM C4-HSL was added to the LasR-GFP and RhlR-GFP preparations, respectively. Compounds were tested at 1 mM for antagonism and at 100 nM or 20 μM for agonism. These concentrations were chosen for agonism studies to match the concentrations of autoinducers used in our experiments. For antagonism studies, we used the EC95 concentration for each receptor. GFP was measured on an Envision plate reader.

The subject of test [2] is wild-type P. aeruginosa PA14. In words: microbe, parasite or virus in culture. In kind it is cell-based. As to conditions: for inhibition of pyocyanin production (in words): wild-type P. aeruginosa PA14, end point assays at 100 μM; for Efficacy (%): Table 3, reduction of pyocyanin vs WT P. aeruginosa PA14: 0% = WT level, 100% = background medium. The method, then: (§3) Methods. The oxidized form of pyocyanin imparts a green color to P. aeruginosa cultures, making the production of pyocyanin convenient to monitor by UV/Vis absorbance. Overnight P. aeruginosa cultures were subcultured into 5 mL fresh medium at 1:1000 dilution. Synthetic compounds were assayed at 100 μM for end point assays and at concentrations ranging from 200 nM to 200 μM for titrations following 17 hr of aerobic growth with shaking at 37° C. Cells were separated from culture fluids via centrifugation at 13,000 rpm for 15 min. Culture fluids were passed through 0.22 μm syringe driven filters (Millipore). Cell-free culture fluids were analyzed for pyocyanin using wavelength scans on a Beckman Coulter DU-800 spectrophotometer from 200 nm to 800 nm 695 nm was chosen for graphical representation. Titration data were fit with a variable-slope sigmoidal dose-response curve using GraphPad Prism to determine the IC50 values.
The compounds of the first library were assayed in wild-type (WT) P. aeruginosa PA14. Pyocyanin was used as a read-out for quorum sensing activity based on its absorbance at 695 nm. The efficacy of the compounds at reducing pyocyanin levels was calculated with respect to WT levels of pyocyanin, where WT levels of pyocyanin would lead to a 0% efficacy, and an absorbance equal to the background medium would lead to a 100% efficacy. Agonists that increase pyocyanin production have negative efficacy values.

Test [3] concerns the target T2, RhlR (Pseudomonas aeruginosa, UniProt P54292).
T2 construct: expressed in transfected cells; host or cells: E. coli BL21-Gold (DE3) carrying pET23b-rhlR
In words: RhlR-GFP assay (rhlA-gfp reporter in recombinant E. coli). In kind it is cell-based, P. aeruginosa. On the procedure: as §1, §2

Test [4] concerns A549 human lung cells infected with P. aeruginosa PA14. Put plainly: A549 human lung cell infection (propidium iodide uptake). In kind it is cell-based. As to conditions: wild-type and lasR mutant strains; 100 μM compound. On the procedure:
Methods. Human A549 cells were grown in CellStar tissue culture flasks. Prior to infection, the A549 cells were treated with trypsin-EDTA (CellGro), split, counted, and aliquotted into 96 well plates at 20,000 mammalian cells/well (cell counts were estimated using Trypan Blue (CellGro) exclusion). Cells were grown for 20 hr at 37° C. in DMEM (Invitrogen). Cells were washed 3× with warm PBS (Gibco). 100 μL of “master mix” was added to each well for each condition. Master mix contained 1 mL pre-warmed-PBS, 5 μL of 2 mg/mL propidium iodide (Bioprobes), 1 μL of a 100 mM inhibitor stock or DMSO, and 10 μL of OD600=2 P. aeruginosa PA14 grown in the presence of mBTL or DMSO. Infections were monitored using an EnVision plate reader every 2 hr with the RFP filter supplied by GE.

The subject of test [5] is wild-type P. aeruginosa PA14. Put plainly: Microarray gene expression analysis, wild-type strain. In kind it is cell-based. As to conditions: WT P. aeruginosa PA14, 100 μM. On the procedure: Methods. Overnight P. aeruginosa PA14 cultures were back-diluted 1:1000 into 5 mL of fresh LB. 100 μM mBTL, or an equivalent amount of DMSO, was added to cultures which were grown aerobically with shaking at 37° C. for 17 hr. 9 ODs of cells were harvested for each treatment. Lysozyme (1 mg/mL in TE buffer) (Sigma) was added for 10 min at room temperature. Total RNA was prepared using the RNeasy Midi Kit (Qiagen). RNA was treated with RNase-Free DNaseI (Ambion) for 1 hr at 37° C., inactivated using DNaseI Inactivation Reagent Resin (Ambion), and re-purified using the RNeasy Mini Kit. […] The library was purified using the PCR Purification kit (Qiagen) and assessed for Cy3 and Cy5 incorporation using a Nanodrop ND-1000 Spectrophotometer (Nanodrop Technologies). […] Microarrays were scanned using an Agilent G2505C scanner and analyzed using Agilent Feature Extract software version 9.5. Resulting microarray intensity data were submitted to the PUMA Database (http://puma.princeton.edu) for archiving and analyzed using Matlab R2013a.
Overnight P. aeruginosa PA14 cultures were back-diluted 1:1000 into 5 mL of fresh LB. […] The library was purified using the PCR Purification kit (Qiagen) and assessed for Cy3 and Cy5 incorporation using a Nanodrop ND-1000 Spectrophotometer (Nanodrop Technologies). […]

In test [6] the test system is ΔlasRrhlR strain of P. aeruginosa. Put plainly: Pyocyanin production in mutant lacking LasR and RhlR. The class given is cell-based. As to conditions: treated vs DMSO. On the procedure: as §3
The compounds were designed to be AHL analogs that bind and antagonize LasR and/or RhlR. If either receptor were the target, a ΔlasRrhlR strain of P. aeruginosa would not be expected to have a further reduction of pyocyanin when treated with an inhibitor.

“Also recorded” adds a separate entry of the source.

T1 sequence (P25084 whole entry): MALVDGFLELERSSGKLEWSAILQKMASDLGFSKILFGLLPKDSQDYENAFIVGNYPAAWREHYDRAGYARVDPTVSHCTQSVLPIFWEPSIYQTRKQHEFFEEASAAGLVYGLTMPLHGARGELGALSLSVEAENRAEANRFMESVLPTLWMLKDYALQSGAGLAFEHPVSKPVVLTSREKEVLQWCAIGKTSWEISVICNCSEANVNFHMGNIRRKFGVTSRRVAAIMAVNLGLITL
T2 sequence (P54292 whole entry): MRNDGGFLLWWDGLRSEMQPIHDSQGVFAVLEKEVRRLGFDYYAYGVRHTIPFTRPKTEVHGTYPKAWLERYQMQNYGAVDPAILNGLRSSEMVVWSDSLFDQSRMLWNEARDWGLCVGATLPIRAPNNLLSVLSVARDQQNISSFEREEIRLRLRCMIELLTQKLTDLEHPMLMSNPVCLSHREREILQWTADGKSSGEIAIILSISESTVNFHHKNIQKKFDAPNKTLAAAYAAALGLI

chlorolactone [CL]: the “LasR agonism (in words)” value in test [1] (100 nM, no autoinducer) is “does not agonize either receptor”. In test [1] (tested at 1 mM with 3OC12-HSL), the “inhibition of LasR-directed transcription in E. coli (in words)” value is “more potent inhibitor of both LasR- and RhlR-directed transcription in E. coli than is mBTL; also recorded: inhibits LasR- and RhlR-controlled transcription”. In test [2], the “inhibition of pyocyanin production (in words)” value is “Neither CL nor CTL inhibited pyocyanin production; also recorded: no in vivo inhibition of pyocyanin production”. Further, the “RhlR agonism (in words)” value in test [3] (20 μM, no autoinducer) was “does not agonize either receptor”. Moreover, in test [3] (tested at 1 mM with C4-HSL), the “inhibition of RhlR-directed transcription in E. coli (in words)” value was “more potent inhibitor of both LasR- and RhlR-directed transcription in E. coli than is mBTL; also recorded: inhibits LasR- and RhlR-controlled transcription”. Besides, in test [4], the “killing of A549 cells by P. aeruginosa” value is “does not attenuate killing of A549 lung cells”.

Turning to `O=C(COc1cccc(Br)c1)Nc1ccnc(C(F)(F)F)c1` [compound 16, 4-amino-2-trifluoromethylpyridine-C6-3-bromophenoxyhybrid], in test [5], the “effect on pyocyanin biosynthetic genes (microarray)” value is given as “none of the pyocyanin biosynthetic genes are impacted”. Moreover, the entries for the “Efficacy (%)” value in test [2] (listed as Table 3 entry 18) and in test [2] (listed as drawing 76) were 99% and 99 ± 0.3%, respectively. Besides, the “inhibition of pyocyanin production (in words)” value in test [2] was “highly effective at blocking pyocyanin production”. In addition, the “pyocyanin levels in strain lacking LasR and RhlR” value in test [6] is “pyocyanin levels are further reduced”.
